{
  "source": "patent US20110152379A1",
  "about": "“COMPOSITION FOR CONTROL OF AGING AND/OR EXTENSION OF LIFE, CONTAINING DAPSONE AS ACTIVE INGREDIENT” (priority 2008, published 2011)",
  "key": {"ATP": {"test_system": "ATP", "assay": "Measurement of ATP amount in C. elegans", "assay_type": "in vivo", "conditions": "C. elegans treated with DDS; FIG. 9", "method": "The amount of ATP was measured by slightly modifying the method as mentioned above. In order to, analyze the total amount of ATP, C. elegans was cultured by feeding only on PABA or by feeding on PABA and dapsone, and then was washed with S Basal buffer solution (0.1 M NaCl/0.05 M potassium phosphate buffer, pH 6.0) to remove a contaminant and prepare a sample for measuring. The sample was ultimately adjusted to be 100 ul and then froze at −80° C. C. elegans that was frozen was immediately heated for 15 minutes to erupt ATP and then maintained at a cold condition. Since then, the residue of C. elegans was removed by using a centrifuge (at 15,000 g for 5 minutes). The amount of ATP was measured by using the reagent of bioluminescence assay kit CLS II (Roche Molecular Biochemicals) and Luminometer (available from PerkinElmer company). The amount of ATP was standardized with the amount of protein."}, "autophagy": {"test_system": "autophagy", "assay": "Autophagy genes RT-PCR and GFP::lgg-1 immune blot in C. elegans", "assay_type": "in vivo", "conditions": "after treating with DDS", "method": "All the results are summarized from three independent experiments.\nTotal RNA was isolated by using TRI reagent available from MRC Company and first cDNA strain was synthesized by using Oligo-dT and Superscript II Reverse Transcriptase (available from Invitrogen Company). The gene amplification (PCR) was performed by using PCR Master Mix (Genenmed) and as the base sequence of the primer, ceDuox1; 5′-[…]-3′ (Forward Primer) and 5′-[…]-3′ (Reverse Primer), actin 5′-[…]-3′ (Forward Primer) and 5′-[…]-3′ (Reverse Primer) were used.\nIn addition, the gene related to the autophagy used the primer as follows: […]"}, "[1]": {"molecular_target": "T1, Type I pyruvate kinase of rabbit muscle (Oryctolagus cuniculus, UniProt P11974)", "T1 construct": "purchased Sigma; host or cells: rabbit muscle", "T1 sequence (P11974 whole entry)": "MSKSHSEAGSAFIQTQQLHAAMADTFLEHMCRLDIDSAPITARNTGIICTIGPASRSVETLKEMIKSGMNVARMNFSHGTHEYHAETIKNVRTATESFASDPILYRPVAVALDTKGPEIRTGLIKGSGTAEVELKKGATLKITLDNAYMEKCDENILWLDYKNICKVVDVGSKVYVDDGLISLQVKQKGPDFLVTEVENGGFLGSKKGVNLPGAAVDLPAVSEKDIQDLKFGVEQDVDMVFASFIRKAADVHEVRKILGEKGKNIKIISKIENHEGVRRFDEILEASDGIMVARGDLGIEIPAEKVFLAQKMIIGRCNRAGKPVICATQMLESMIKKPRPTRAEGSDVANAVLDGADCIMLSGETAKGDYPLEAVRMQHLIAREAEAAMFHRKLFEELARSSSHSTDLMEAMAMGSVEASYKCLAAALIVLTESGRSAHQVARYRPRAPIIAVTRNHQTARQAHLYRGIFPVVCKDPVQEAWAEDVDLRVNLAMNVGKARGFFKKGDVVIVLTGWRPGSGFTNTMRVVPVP", "assay": "Pyruvate kinase activity in vitro (LDH-coupled, 340 nm)", "assay_type": "biochemical", "conditions": "DDS added directly along with PK; FIG. 16A", "method": "PK activity was analyzed through the decrease degree of absorbance at 340 nm by using the change result from pyruvate and NADH to lactate and NAD by lactate dehydrogenase (LDH). The pyruvate and ATP used for the above process were produced from phosphoenolpyruvate (PEP) and ADP by PK. The analysis in vitro was measured by adding directly DDS along with PK to the above reaction mixture and the analysis in vivo was measured by adding worms that fed on DDS.\nSamples were homogenized by rupturing C. elegans with glass bead Precellys 24 homogenizer, twice for 20 seconds, at 5000 rpm in a 100 mM potassium phosphate buffer, pH 7.6, at 37° C. A CHAPS was added to the homogenized sample to be 1% of the final concentration and then centrifuged at 15000 g for 20 minutes. The measurement of pyruvate kinase(PK) activity was performed at 37° C. by adding 300 uL of the reaction mixture contained 100 mM potassium phosphate buffer at pH 7.6 and 37° C., 100 mM MgSO4, 1.3 mM β-NADH, 5000 units/mL of lactate dehydrogenase (LDH), 2 mM adenosine diphosphate (ADP) and 17 mM phosphoenolpyruvate (PEP) into the sample. The change of oxidation degree of NADH was measured at 340 nm of absorbance. PK 1 unit was defined as the change into 1.0 umole of pyruvate per a minute at pH 7.6 and 37° C. […] Type I pyruvate kinase (Sigma) of rabbit muscle was used for in vitro experiment."}, "C. elegans [2]": {"test_system": "C. elegans", "assay": "Chemiluminescent of lipofuscin in small intestine of worm", "assay_type": "in vivo", "conditions": "fed on DDS during the whole life and after the adolescence; FIG. 5", "method": "The chemiluminescent of C. elegans was taken a photograph by exposing for 800 msec through 525 nm Band-Pass Filter. The size of each photograph was only adjusted by using Adobe Photoshop CS2. For measuring the amount of Chemiluminescent in a small intestine, the brightness of pixels in a certain region was measured by Image J 1.35. At least 30 of C. elegans were measured every day and then the mean and standard error were calculated."}, "calcium": {"test_system": "calcium", "assay": "Calcium amount in a cell, Fluo-4", "assay_type": "cell-based", "conditions": "human diploid fibroblast, 1 mM PQ, FIG. 27", "method": "HDF cell was cultured at 96-well plate and the calcium in cell was measured by using Fluo-4AM. […] The amount of Calcium in a cell was measured by using Fluo-4 (5 uM) that is a fluorescent material for labeling calcium and is well passed through a cell. The cell was cultured at 37° C. for 30 minutes and then maintained at a room temperature for 30 minutes without light in order for a complete de-esterification of AM ester in a cell: The fluorescent material that was left was removed except a cell by using HBSS containing 20 mM of HEPES (pH 7.4), and 100 ul of HBSS was added into wells containing cells, respectively. The fluorescent signal was measured at 494 nm for the excitation wavelength and 516 nm for the emission wavelength by using the multi-well fluorescence plate Eclipse fluorescence spectrophotometer (Varian, Calif., USA). The result was shown as Relative fluorescence units (RFUs)."}, "human diploid fibroblast": {"test_system": "human diploid fibroblast", "assay": "Survival rate of human diploid fibroblast treated with PQ (CCK-8)", "conditions": "DDS pretreatment (0.1, 1, 5, 20 and 50 uM) 3 hours, then 1 mM PQ 48 hours; FIG. 23", "method": "The above cell was cultured by adding Cell Counting Kit-8 for 48 hours and then the survival ability of cell was measured. In addition, DPI (5 uM) was pretreated for 30 minutes and NAC (2 mM) was pretreated for 3 hours, and then 1 mM of PQ was treated as a positive control.\nThe evaluation of survival rate of cell was performed by using Counting Kit (CCK-8) from Dojindo Laboratory Company (Japan). The human diploid fibroblast was cultured at 96-well plate for 24 hours before treating. […] The absorbance was measured at 450 nm."}, "H2O2": {"test_system": "H2O2", "assay": "Hydrogen peroxide by Amplex Red assay in paraquat-treated C. elegans", "assay_type": "in vivo", "conditions": "250 mM paraquat for 1 hour; FIG. 11", "description": "The effect of dapsone on ROS scavenging was measured by using Amplex Red hydrogen peroxide/peroxygenase detection kit (Molecular Probes, Eugene, Oreg.) [39] that were previously described in order to measure the effect of dapsone on ROS scavenging. Simply put, 150 C. elegans that fed only on PABA or fed on PABA and dapsone was treated with 250 mM of paraquat for 1 hour. 100 C. elegans were adjusted to be 50 ul at 96-well plate and then 50 ul of Amplex Red (200 uM) was added to each well. After maintaining at 22° C. for 90 minutes, the amount of hydrogen peroxide was measured at 540 nm of absorbance by using a plate reader (Tecan, infinite 200)."}, "C. elegans [3]": {"test_system": "C. elegans", "assay": "Oxidative stress resistance test, survival in 250 mM paraquat", "assay_type": "in vivo", "conditions": "PQ 250 mM; compared with control C. elegans; FIG. 12", "method": "C. elegans at 5 days after administrating dapsone for second generations was used for testing an oxidative stress resistance by dapsone. 250 mM of paraquat was dissolved in M9 solution and then 20 C. elegans was immersed into the above solution. The number of living C. elegans was measured per an hour."}, "pyruvate": {"test_system": "pyruvate", "assay": "Pyruvate content in C. elegans (fluorescence-based assay kit)", "assay_type": "in vivo", "conditions": "C. elegans that fed on DDS; FIG. 17A", "method": "The measurement of pyruvate content was performed by using Fluorescence-based assay kit (BioVision) was purchased according to its instructions. […] Three measurements were performed."}},
  "data": [
    {"smiles": "Nc1ccc(S(=O)(=O)c2ccc(N)cc2)cc1", "note": "[DDS, 4,4′-diaminodiphenylsulfone]", "values": [
      {"measurement": "ATP amount", "setting": "ATP", "result": "decreased"},
      {"measurement": "genes relevant to the autophagy, transcription level", "setting": "autophagy; RT-PCR, FIG. 21A", "result": "not changed"},
      {"measurement": "LGG-1 marker protein of the autophagy", "setting": "autophagy; immune blot, FIG. 21B", "result": "not increased"},
      {"measurement": "biochemical activity of PK in vitro", "setting": "[1]", "result": "suppresses"},
      {"measurement": "generation of lipofuscin", "setting": "C. elegans [2]", "result": "delayed for several days"},
      {"measurement": "amount of calcium increased by PQ", "setting": "calcium", "result": "decreases"},
      {"measurement": "viability of human diploid fibroblast compared with the cell having the cytotoxic of PQ", "setting": "human diploid fibroblast", "result": "improved"},
      {"measurement": "ROS (H2O2) generation by PQ", "setting": "H2O2", "result": "meaningfully suppresses"},
      {"measurement": "survival rate in NGM liquid medium containing PQ", "setting": "C. elegans [3]", "result": "significantly increased"},
      {"measurement": "content of pyruvate compared with a control", "setting": "pyruvate", "result": "high content of pyruvate"}
    ]}
  ]
}
